Test results published in US8389544B2, “Isoquinolone compounds as subtype-selective agonists for melatonin receptors MT1 and MT2” (The Hong Kong University of Science and Technology, priority 2007, dated 2013).

Tests used:
MT2/293 = assay: MTT cytotoxicity assay, MT2/293 cells; type: cell-based; conditions: percentage of untreated control cells
Method: This assay evaluates the cytotoxic effects of the novel isoquinolone compounds based on the cellular viability under chronic treatments. Viable cells but not dead cells can turn the substrate into a colored product, which yields higher absorbance. […] A low percentage indicates low cytoviability (or high cytotoxicity).
5. Cytotoxicity Test Using MTT Assay
Cells were seeded into clear 96-well plate at an appropriate density in 100 μl growth medium and were allowed to grow overnight. The novel isoquinolone compounds were diluted to desired concentrations using fresh growth medium, and these dilutions were used to replace the growth media in each well. After incubating for 24-96 h, 10 μl of the MTT labeling reagent (Roche) was added to each well and the cells were incubated in a CO2 incubator for 4 h. 100 μl solubilization buffer was then added into each well and incubated overnight for complete solubilization of the purple formazan crystals. […] Each condition was performed in triplicate in every experiment and the results were expressed as % of blank control±SD.

MT2 receptor = target: T1, MT2 receptor (Homo sapiens, UniProt P49286); assay: CRE-Luc (luciferase reporter gene) assay, MT2; type: cell-based; parameters: expressed in transfected cells; conditions: HEK 293-pCREluc cells with MT2; inhibition of forskolin response
T1 sequence (P49286 1-362): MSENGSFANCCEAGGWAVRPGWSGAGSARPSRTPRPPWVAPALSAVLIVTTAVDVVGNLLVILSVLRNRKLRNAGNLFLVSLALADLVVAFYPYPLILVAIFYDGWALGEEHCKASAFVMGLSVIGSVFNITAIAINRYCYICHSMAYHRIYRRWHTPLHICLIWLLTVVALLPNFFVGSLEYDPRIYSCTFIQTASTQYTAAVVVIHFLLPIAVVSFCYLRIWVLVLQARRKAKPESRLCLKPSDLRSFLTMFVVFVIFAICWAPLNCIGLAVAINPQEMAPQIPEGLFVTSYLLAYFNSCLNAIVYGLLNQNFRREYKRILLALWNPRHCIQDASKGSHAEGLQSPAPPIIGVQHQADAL
Method: The luciferase reporter gene assay offers another way to measure melatonin receptor activation. Cells expressing cAMP-responsive element-driven luciferase reporter gene (293-pCREluc) and either the MT1 or MT2 receptor are treated with forskolin (a substance which stimulates cAMP production as well as the subsequent luciferase gene expression) alone or with a novel isoquinolone compound. As melatonin receptor activation inhibits cAMP production, any suppression in the expression of luciferase leads to a decrease in enzymatic activities and a reduction in the amount of luminescence signal generated.
The luciferase assay, a reporter gene assay, was performed to confirm the ability of the invention to activate the melatonin receptors. Prior to the assay, HEK (human embryonic kidney) 293 cells are stably transfected with cAMP-responsive element-driven luciferase reporter gene (293-pCREluc) and cDNAs encoding MT1 or MT2 receptors. The cells are then exposed to the novel isoquinolone compounds, after which the substrate luciferin is added and the resulting luminescence measured.
Prior to the assay human embryonic kidney (HEK) 293 cells (CRL-1573, ATCC) is maintained at 37° C. in minimum essential medium (MEM) supplemented with 10% fetal bovine serum (FBS), 100 units/ml penicillin and 100 μg/ml streptomycin in a humidified atmosphere containing 5% CO2. Human embryonic kidney 293 cells stably transfected with cAMP-responsive element-driven luciferase reporter gene (293-pCREluc) are established and maintained in growth medium supplemented with 300 μg/ml G418 sulphate.
For luciferase assays, HEK-293 cells stably expressing pCRE-luciferase are seeded at a density of 15,000 cells/well into 96 well plates. Transfection is carried out using Lipofectamine Plus® reagent at 0.2 μl of both Plus and lipofectamine reagents with 50 ng cDNAs encoding MT1 or MT2 receptors per well. After a 3 hour transfection period at 37° C., 50 μl of DMEM with 20% fetal calf serum (FCS) is added into the wells and the plate is incubated at 37° C. for 48 h prior to 24 hour serum starvation. […]
Cells are harvested by replacing medium in the well by 50 μl luciferase lysis buffer. The Berthold microplate luminometer is maintained at 25° C. throughout the assay. Injector M connected to an empty tube and P connected to the drug tube are set to inject 25 μl of luciferin into appropriate wells. A 1.6 second delay time followed by a 1 second measuring time period is assigned to injector M, whereas injector P is measured for 10 seconds after luciferase substrate is introduced into the well. Results are expressed as relative luminescent units (RLU). Where indicated, agonist-induced activity is expressed as a percentage of the RLU obtained with forskolin.

SMILES	MTT Assay MT2/293 % Viability ± SEM (MT2/293)	CRE-Luc Assay MT2 % Inh ± SEM of 1 μM Fsk (MT2 receptor)
COc1cc(COc2c(OC)ccc3c(=O)n(C)ccc23)cc(OC)c1 [IS528]	42.4 ± 1.3%	60.8 ± 8.5%
COc1cc(COc2cc3c(=O)n(C)ccc3cc2OC)cc(OC)c1 [IS523]	46.2 ± 3.7%	71.6 ± 16.3%
COc1cc2ccn(C)c(=O)c2cc1OCc1ccc(C(C)(C)C)cc1 [IS526]	24.7 ± 1.6%	17.8 ± 4.7%
COc1cccc(COc2c(OC)ccc3c(=O)n(C)ccc23)c1 [IS527]	46.8 ± 0.2%	61.0 ± 9.3%
COc1cccc(COc2cc3ccn(C)c(=O)c3cc2OC)c1 [IS044]	112.5 ± 3.8%	73.9 ± 12.4%
Cn1ccc2cc(OC(=O)c3ccccc3)c(OC(=O)c3ccccc3)cc2c1=O [IS039]	117.6 ± 9.0%	69.8 ± 7.2%
COc1cccc(COc2cc3c(=O)n(C)ccc3cc2OC)c1 [IS521]	90.5 ± 11.7%	70.2 ± 9.2%
COc1ccc2c(=O)n(C)ccc2c1OCc1ccc(C)cc1 [IS529]	48.5 ± 1.6%	61.3 ± 13.1%
COc1cc(COc2cc3ccn(C)c(=O)c3cc2OC)cc(OC)c1 [IS042]	56.3 ± 1.5%	71.3 ± 8.8%
